Legend:
[1] = biological target: T1, BRM (Homo sapiens, UniProt P51531); assay: ATPase catalytic activity assay (ADP-Glo), BRM; assay type: biochemical; details: Table 10; for Ratio (BRG1 IC50 (μM) divided by BRM IC50 (μM)): ATPase assay, selectivity BRG1/BRM; for IC50: ATPase catalytic activity assay (ADP-Glo)
T1 construct: made in house; host or cells: High Five insect cells
Procedure, shortened: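 Reaction holds 30 nM BRM, 20 nM salmon sperm DNA and 400 μM ATP in 20 mM Tris pH 8, 20 mM MgCl2, 50 mM NaCl, 0.1% Tween-20, 1 mM DTT. Incubated 1 h at room temperature. ADP formed is detected by ADP-Glo luminescence.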

[2] = biological target: T2, BRG-1 (Homo sapiens, UniProt P51532); assay: ATPase catalytic activity assay (ADP-Glo), BRG-1; assay type: biochemical; details: Table 10, read-out: BRG1 IC50
T2 construct: made in house; host or cells: High Five insect cells
Procedure, shortened: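 Signal reflects ADP produced by the enzyme, quantified as luminescence after unused ATP is cleared and ADP is reconverted to ATP for the luciferase reaction; both steps run at room temperature, 40 and 60 min respectively.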

T2 sequence (P51532 whole entry): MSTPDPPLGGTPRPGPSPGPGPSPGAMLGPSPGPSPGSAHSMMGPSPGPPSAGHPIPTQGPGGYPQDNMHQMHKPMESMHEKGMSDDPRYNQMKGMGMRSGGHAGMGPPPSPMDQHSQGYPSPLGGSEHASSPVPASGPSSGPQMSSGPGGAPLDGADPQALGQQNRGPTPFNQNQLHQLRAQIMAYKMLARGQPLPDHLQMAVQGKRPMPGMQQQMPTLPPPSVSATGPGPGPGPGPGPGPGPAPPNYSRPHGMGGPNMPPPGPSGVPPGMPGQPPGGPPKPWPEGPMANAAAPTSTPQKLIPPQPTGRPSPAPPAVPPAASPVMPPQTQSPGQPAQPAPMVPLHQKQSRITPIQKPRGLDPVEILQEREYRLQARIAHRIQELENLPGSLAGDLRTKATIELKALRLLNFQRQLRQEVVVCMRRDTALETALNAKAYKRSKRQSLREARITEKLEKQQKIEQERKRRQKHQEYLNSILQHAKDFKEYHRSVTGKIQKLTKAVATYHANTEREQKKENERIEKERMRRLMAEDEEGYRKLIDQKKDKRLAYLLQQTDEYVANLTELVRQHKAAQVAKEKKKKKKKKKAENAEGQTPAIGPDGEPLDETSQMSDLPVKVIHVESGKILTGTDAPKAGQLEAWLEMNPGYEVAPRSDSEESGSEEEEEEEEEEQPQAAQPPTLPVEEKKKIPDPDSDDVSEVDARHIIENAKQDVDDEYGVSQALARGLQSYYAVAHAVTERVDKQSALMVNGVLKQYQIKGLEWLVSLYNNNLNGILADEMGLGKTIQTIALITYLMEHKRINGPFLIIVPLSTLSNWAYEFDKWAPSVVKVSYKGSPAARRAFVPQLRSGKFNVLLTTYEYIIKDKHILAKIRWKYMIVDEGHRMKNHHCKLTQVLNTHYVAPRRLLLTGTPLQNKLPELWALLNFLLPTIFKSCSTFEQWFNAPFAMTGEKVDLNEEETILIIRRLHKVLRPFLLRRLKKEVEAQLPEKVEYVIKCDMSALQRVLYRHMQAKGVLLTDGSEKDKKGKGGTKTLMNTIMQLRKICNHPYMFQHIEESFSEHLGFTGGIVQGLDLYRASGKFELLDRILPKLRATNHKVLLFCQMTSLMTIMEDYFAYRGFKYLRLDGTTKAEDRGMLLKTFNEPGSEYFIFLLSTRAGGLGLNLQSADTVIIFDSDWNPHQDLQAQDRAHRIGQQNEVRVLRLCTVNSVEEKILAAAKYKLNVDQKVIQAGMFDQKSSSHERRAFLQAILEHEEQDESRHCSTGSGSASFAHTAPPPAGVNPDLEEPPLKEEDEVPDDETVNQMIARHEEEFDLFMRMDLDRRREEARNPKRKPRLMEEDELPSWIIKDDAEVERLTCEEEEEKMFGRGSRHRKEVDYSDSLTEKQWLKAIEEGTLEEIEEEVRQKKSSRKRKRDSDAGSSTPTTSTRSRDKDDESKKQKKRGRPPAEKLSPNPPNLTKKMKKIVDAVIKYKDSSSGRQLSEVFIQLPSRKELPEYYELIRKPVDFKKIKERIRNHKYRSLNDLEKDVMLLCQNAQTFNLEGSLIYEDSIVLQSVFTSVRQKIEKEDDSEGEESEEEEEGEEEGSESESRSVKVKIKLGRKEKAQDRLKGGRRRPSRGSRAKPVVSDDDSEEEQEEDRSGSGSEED
T1 sequence (P51531 whole entry): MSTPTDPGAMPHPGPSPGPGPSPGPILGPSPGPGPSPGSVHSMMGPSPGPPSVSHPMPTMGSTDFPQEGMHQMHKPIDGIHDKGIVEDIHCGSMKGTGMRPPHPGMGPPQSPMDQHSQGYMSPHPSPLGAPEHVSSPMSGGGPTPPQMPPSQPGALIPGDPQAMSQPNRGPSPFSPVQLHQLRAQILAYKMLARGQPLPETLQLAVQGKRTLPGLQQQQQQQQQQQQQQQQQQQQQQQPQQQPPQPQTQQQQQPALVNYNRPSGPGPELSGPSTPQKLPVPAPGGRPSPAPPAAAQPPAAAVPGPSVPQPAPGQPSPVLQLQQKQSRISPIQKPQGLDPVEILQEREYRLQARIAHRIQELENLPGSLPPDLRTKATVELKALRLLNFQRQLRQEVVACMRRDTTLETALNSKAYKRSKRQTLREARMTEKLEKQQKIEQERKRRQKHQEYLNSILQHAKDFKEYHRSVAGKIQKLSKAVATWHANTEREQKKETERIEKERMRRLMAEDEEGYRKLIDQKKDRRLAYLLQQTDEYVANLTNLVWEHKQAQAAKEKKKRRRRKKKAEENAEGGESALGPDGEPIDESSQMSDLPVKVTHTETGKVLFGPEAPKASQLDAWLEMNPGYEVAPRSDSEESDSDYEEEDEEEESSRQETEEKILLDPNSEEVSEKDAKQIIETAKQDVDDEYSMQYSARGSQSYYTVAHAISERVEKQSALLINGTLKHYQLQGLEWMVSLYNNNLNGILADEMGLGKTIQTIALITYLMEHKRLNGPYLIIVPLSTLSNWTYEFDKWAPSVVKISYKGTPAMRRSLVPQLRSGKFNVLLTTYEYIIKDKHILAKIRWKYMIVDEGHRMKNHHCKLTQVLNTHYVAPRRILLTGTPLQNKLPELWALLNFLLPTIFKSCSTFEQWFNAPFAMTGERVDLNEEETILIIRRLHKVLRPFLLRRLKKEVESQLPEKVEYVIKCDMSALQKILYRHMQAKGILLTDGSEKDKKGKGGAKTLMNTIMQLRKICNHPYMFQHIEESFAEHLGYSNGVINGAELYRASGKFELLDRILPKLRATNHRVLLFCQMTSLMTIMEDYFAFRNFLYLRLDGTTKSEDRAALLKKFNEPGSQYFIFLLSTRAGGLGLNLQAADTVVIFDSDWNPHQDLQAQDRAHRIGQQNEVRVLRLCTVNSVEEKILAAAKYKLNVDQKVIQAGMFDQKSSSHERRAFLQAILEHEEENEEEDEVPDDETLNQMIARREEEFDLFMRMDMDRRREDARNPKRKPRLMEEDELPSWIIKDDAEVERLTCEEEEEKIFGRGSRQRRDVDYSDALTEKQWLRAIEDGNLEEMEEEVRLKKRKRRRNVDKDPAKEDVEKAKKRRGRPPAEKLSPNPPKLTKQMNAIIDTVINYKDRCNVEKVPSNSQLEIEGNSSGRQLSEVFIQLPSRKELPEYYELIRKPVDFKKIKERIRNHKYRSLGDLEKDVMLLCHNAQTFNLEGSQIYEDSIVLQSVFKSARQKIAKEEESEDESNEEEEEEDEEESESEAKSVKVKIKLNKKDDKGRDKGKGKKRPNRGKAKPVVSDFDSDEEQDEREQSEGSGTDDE

SMILES	Ratio (BRG1 IC50 (μM) divided by BRM IC50 (μM)) [1]	IC50 [1] [nM]	IC50 [2] [nM]
COc1ccc(-c2ccc3cnc(CNC(=O)c4cc(F)c5c(c4)S(=O)(=O)[C@@H](F)CCO5)cc3n2)nc1C1CC1 [Compound 181]	29.09	5.7	146
O=C(NCc1cc2nc(N3CCOc4cc(N5CC[C@@H](F)C5)cnc43)ccc2cn1)c1cc(F)c2c(c1)S(=O)(=O)[C@@H](F)CCO2 [Compound 182]	16.19	5.7	83.9
O=C(NCc1cc2nc(N3CCOc4cc(N5CC[C@H](F)C5)cnc43)ccc2cn1)c1cc(F)c2c(c1)S(=O)(=O)[C@@H](F)CCO2 [Compound 183]	12.89	5.7	89.9
O=C(NCc1cc(C#Cc2cccc(OC(F)F)n2)ccn1)c1cc(F)c2c(c1)S(=O)(=O)[C@@H](F)COC2 [Compound 184, (R)—N-((4-((6-(difluoromethoxy)pyridin-2-yl)ethynyl)pyridin-2-yl)methyl)-2,6-difluoro-3,5-dihydro-2H-benzo[e][1,4]oxathiepine-8-carboxamide 1,1-dioxide]	23.91	143	3420
O=C(NCc1cc2nc(N3CCOc4ccc(C(F)F)nc43)ccc2cn1)c1cc(F)c2c(c1)S(=O)(=O)[C@@H](F)CCO2 [Compound 185]	21.73	5.7	110
[2H]C1([2H])Oc2c(F)cc(C(=O)NCc3cc4nc(-c5ccc(OC(F)F)c(C6CC6)n5)ccc4cn3)cc2S(=O)(=O)[C@@]([2H])(F)C1([2H])[2H] [Compound 186]	16.18	5.7	102
O=C(NCc1cc2nc(N3CCOc4cc(N5CCC5)cnc43)ccc2cn1)c1ccc2c(c1)S(=O)(=O)[C@@H](F)CCO2 [Compound 187]	13.32	5.8	76.6
O=C(NCc1cc2nc(-c3ccnc(N4CCCC4)n3)ccc2cn1)c1cc(F)c2c(c1)S(=O)(=O)[C@@H](F)CCO2 [Compound 188]	20.95	5.8	132
COCCOc1ccnc2c1CCCN2c1ccc2cnc(CNC(=O)c3cc(F)c4c(c3)S(=O)(=O)[C@@H](F)CCO4)cc2n1 [Compound 189]	16.84	5.8	107
O=C(NCc1cc2nc(N3CCOc4cc(N5CCC5)cnc43)ccc2cn1)c1cc(F)c2c(c1)S(=O)(=O)[C@@H](F)CCO2 [Compound 190]	20.33	5.8	127
Cn1ccc2c(-c3ccc4cnc(CNC(=O)c5cc(F)c6c(c5)S(=O)(=O)[C@@H](F)CCO6)cc4n3)cccc21 [Compound 191]	10.64	5.8	62.1
C[C@@H]1C[C@@H]1c1cnc2c(c1)OCCN2c1ccc2cnc(CNC(=O)c3cc(F)c4c(c3)S(=O)(=O)[C@@H](F)CCO4)cc2n1 [Compound 192]	11.37	5.9	66.5
COc1nc(C)ccc1-c1ccc2cnc(CNC(=O)c3cc(F)c4c(c3)S(=O)(=O)[C@@H](F)CCO4)cc2n1 [Compound 193]	16.06	5.9	110
CCCc1ccnc2c1OCCN2c1ccc2cnc(CNC(=O)c3cc(F)c4c(c3)S(=O)(=O)[C@@H](F)CCO4)cc2n1 [Compound 194]	11.72	5.9	69.2
O=C(NCc1cc2nc(-c3ccnc([C@H]4CC4(F)F)n3)ccc2cn1)c1cc(F)c2c(c1)S(=O)(=O)[C@@H](F)CCO2 [Compound 195]	24.88	5.9	168
O=C(NCc1cc2cc(-c3cccc(OC(F)F)n3)ccc2nn1)c1cc(Cl)c2c(c1)S(=O)(=O)[C@@H](F)COC2 [Compound 196]	38.53	99.8	3840
COc1nc(C(F)F)ccc1-c1ccc2cnc(CNC(=O)c3ccc4c(c3)S(=O)(=O)[C@@H](F)CO[C@H]4C)cc2n1 [Compound 197]	14.25	6	84.6

Further lines, results first:

Ratio (BRG1 IC50 (μM) divided by BRM IC50 (μM)) [1]	IC50 [1] [nM]	IC50 [2] [nM]	SMILES
22.18	5.3	143	C[C@@H]1CCN1c1cnc2c(c1)OCCN2c1ccc2cnc(CNC(=O)c3cc(Cl)c4c(c3)S(=O)(=O)[C@@H](F)CCO4)cc2n1 [Compound 165]
15.93	5.3	83.8	O=C(NCc1cc2nc(N3CCOc4cc([C@H]5CC5(F)F)cnc43)ccc2cn1)c1cc(F)c2c(c1)S(=O)(=O)[C@@H](F)CCO2 [Compound 166]
10.82	5.3	56.7	COc1nc(C(F)F)ccc1-c1ccc2cnc(CNC(=O)c3cc(F)c4c(c3)S(=O)(=O)[C@@H](F)COC4)c(F)c2n1 [Compound 167]
15.00	5.3	79.5	O=C(NCc1cc2nc(N3CCCc4cc(N5C[C@@H](F)[C@H](F)C5)cnc43)ccc2cn1)c1cc(F)c2c(c1)S(=O)(=O)[C@@H](F)CCO2 [Compound 168]
10.91	5.3	58.3	O=C(NCc1cc2nc(N3CCCc4c(OC(F)F)ccnc43)ccc2cn1)c1cc(F)c2c(c1)S(=O)(=O)[C@@H](F)CCO2 [Compound 169]
24.59	5.3	122	CCOc1cccc(-c2ccc3cnc(CNC(=O)c4cc(F)c5c(c4)S(=O)(=O)[C@@H](F)CCO5)cc3n2)n1 [Compound 170]
16.27	5.5	89.1	[2H]C1([2H])Oc2c(F)cc(C(=O)NCc3cc4nc(N5CCOc6cc(N7CC(F)C7)cnc65)ccc4cn3)cc2S(=O)(=O)[C@@]([2H])(F)C1([2H])[2H] [Compound 171]
13.09	5.5	74.1	O=C(NCc1cc2nc(N3CCCc4cc(N5CCOCC5)cnc43)ccc2cn1)c1cc(F)c2c(c1)S(=O)(=O)[C@@H](F)CCO2 [Compound 172]
30.21	5.5	178	COc1nc([C@H](C)F)ccc1-c1ccc2cnc(CNC(=O)c3cc(F)c4c(c3)S(=O)(=O)[C@@H](F)CCO4)cc2n1 [Compound 173]
28.19	5.6	158	COc1nc([C@H](C)F)ccc1-c1ccc2cnc(CNC(=O)c3cc(Cl)c4c(c3)S(=O)(=O)[C@@H](F)COC4)cc2n1 [Compound 174]
12.83	5.6	49.3	C[C@@H]1CCN1c1cnc2c(c1)OCCN2c1ccc2cnc(CNC(=O)c3cc(C(F)F)c4c(c3)S(=O)(=O)[C@@H](F)COC4)cc2n1 [Compound 175]
17.02	5.6	123	CC(F)(F)c1cnc2c(c1)OCCN2c1ccc2cnc(CNC(=O)c3cc(F)c4c(c3)S(=O)(=O)[C@@H](F)CCO4)cc2n1 [Compound 176]
22.67	5.6	113	COc1nc(C(F)F)ccc1-c1ccc2cnc(CNC(=O)c3cc(F)c4c(c3)S(=O)(=O)[C@@H](F)CCO4)cc2n1 [Compound 177]
34.29	5.6	207	O=C(NCc1cc2nc(N3CCCc4sc(C5CC5)nc43)ccc2cn1)c1cc(F)c2c(c1)S(=O)(=O)[C@@H](F)CCO2 [Compound 178]
10.62	5.6	59.9	O=C(NCc1cc2cc(-c3ccc(OC(F)F)c(C4CC4)n3)ccc2cn1)c1cc(F)c2c(c1)S(=O)(=O)[C@@H](F)CCO2 [Compound 179]
18.29	5.7	104	O=C(NCc1cc2nc(N3CCOc4cc(OC(F)F)cnc43)ccc2cn1)c1cc(F)c2c(c1)S(=O)(=O)[C@@H](F)CCO2 [Compound 180]

From patent US12139487B2, “Compounds and uses thereof” (Foghorn Therapeutics Inc., priority 2022, dated 2024)
